According to patent US9994584B2, “Process of synthesizing 3-(4-methylpiperazine-1-carbonyl)-7-oxabicyclo[2.2.1] heptane-2-carboxylic acid” (LIXTE BIOTECHNOLOGY, INC., priority 2014, dated 2018):

Legend:
[1] = Solubility in water (water/2-propanol recrystallization); assay type: physicochemical; conditions: crude solids, ambient temperature
Experimental: The crude solids (0.5 g) were dissolved in water (1 mL) and 2-propanol (5 mL) was charged. The resulting slurry was stirred at room temperature for 1 hour, and then isolated by filtration. The solids were washed with 2-propanol (to cover the solids) and air dried to afford 0.1 g (20% recovery yield).

[2] = Solubility in toluene (hot toluene trituration); assay type: physicochemical; conditions: crude solids digested in hot toluene for 1 hour
Experimental: The crude solids (1 g) were digested in hot toluene (15 mL) for 1 hour. The slurry was cooled to room temperature and the solids were isolated by filtration. The solids were dried at 80° C., under vacuum, to afford 0.86 g (86%). […] Based on this observation, in the following experiment toluene was further tried as an anti-solvent.

[3] = system: PP2A; conditions: used alone (Lu et al. 2009a); cited from earlier work
[4] = in vivo; with temozolomide, doxorubicin, docetaxel; cited from earlier work

## CN1CCN(C(=O)C2C(C(=O)O)[C@H]3CC[C@@H]2O3)CC1 (stereo in doubt) [LB100, 3-(4-methylpiperazine-1-carbonyl)-7-oxabicyclo[2.2.1] heptane-2-carboxylic acid]
[1]
  solubility in water: high solubility in water
[2]
  solubility in toluene: low solubility of the material in toluene
[3]
  anti-cancer activity: has anti-cancer activity when used alone
[4]
  potentiation of anti-tumor activity of standard cytotoxic anti-cancer drugs: significantly potentiates in vivo
  toxicity in combination with cytotoxic anti-cancer drugs: without observable increase in toxicity
